Laboratory results from patent US7674801B2 (AstraZeneca AB, priority 2006, dated 2010).

Biological target: S. aureus (SAU) GyrB ATPase (Staphylococcus aureus, UniProt P0A0K8)
Test: S. aureus GyrB ATPase inhibition, ammonium molybdate/malachite green phosphate detection assay
Assay type: biochemical
Conditions: for inhibition at 12.5 µM: read-out: S. aureus (SAU) GyrB ATPase % Inhibition, compound concentration 12.5 μM
Experimental: Compounds were tested for inhibition of GyrB ATPase activity using an ammonium molybdate/malachite green-based phosphate detection assay (Lanzetta, P. A., L. J. Alvarez, P. S. Reinach, and O. A. Candia, 1979, 100: 95-97). Assays were performed in multiwell plates in 100 μl reactions containing: 50 mM Hepes buffer pH 7.5, 75 mM ammonium acetate, 8.0 mM magnesium chloride, 1.0 mM ethylenediaminetetraacetic acid, 5% glycerol, 2 mM 1,4-Dithio-DL-threitol, 400 nM bovine serum albumin, 5 μg/ml sheared salmon sperm DNA, 1.25 nM E. coli GyrA, 1.25 nM S. aureus GyrB, 500 μM ATP, and compound in dimethylsulfoxide. Reactions were quenched with 150 μl of ammonium molybdate/malachite green detection reagent containing 1.2 mM malachite green hydrochloride, 8.5 mM ammonium molybdate tetrahydrate, and 1 M hydrochloric acid. Plates were read in an absorbance plate reader at 650 nm and percent inhibition values were calculated using dimethylsulfoxide (2%)-containing reactions as 0% inhibition and novobiocin-containing (2 μM) reactions as 100% inhibition controls. Compound potency was based on IC50 measurements determined from reactions performed in the presence of 10 different compound concentrations.

S. aureus (SAU) GyrB ATPase, sequence (P0A0K8 whole entry): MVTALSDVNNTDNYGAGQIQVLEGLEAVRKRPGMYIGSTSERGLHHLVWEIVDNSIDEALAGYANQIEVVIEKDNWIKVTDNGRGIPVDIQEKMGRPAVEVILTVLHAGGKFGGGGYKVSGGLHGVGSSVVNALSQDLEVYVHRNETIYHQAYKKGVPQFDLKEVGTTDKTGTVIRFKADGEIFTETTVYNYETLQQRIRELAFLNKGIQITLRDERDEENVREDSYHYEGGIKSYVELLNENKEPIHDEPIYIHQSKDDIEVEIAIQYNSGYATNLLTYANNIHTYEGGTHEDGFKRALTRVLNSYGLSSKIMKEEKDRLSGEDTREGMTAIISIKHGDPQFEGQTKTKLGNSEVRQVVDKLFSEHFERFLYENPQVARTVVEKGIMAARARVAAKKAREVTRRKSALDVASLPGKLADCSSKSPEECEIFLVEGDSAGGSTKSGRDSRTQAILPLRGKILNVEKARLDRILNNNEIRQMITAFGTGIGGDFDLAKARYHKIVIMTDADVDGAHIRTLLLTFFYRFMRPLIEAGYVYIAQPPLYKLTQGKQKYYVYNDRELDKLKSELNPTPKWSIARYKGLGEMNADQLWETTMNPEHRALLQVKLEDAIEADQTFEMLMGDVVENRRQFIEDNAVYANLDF
S. aureus (SAU) GyrB ATPase, sequence (P0AES4 whole entry, further chain): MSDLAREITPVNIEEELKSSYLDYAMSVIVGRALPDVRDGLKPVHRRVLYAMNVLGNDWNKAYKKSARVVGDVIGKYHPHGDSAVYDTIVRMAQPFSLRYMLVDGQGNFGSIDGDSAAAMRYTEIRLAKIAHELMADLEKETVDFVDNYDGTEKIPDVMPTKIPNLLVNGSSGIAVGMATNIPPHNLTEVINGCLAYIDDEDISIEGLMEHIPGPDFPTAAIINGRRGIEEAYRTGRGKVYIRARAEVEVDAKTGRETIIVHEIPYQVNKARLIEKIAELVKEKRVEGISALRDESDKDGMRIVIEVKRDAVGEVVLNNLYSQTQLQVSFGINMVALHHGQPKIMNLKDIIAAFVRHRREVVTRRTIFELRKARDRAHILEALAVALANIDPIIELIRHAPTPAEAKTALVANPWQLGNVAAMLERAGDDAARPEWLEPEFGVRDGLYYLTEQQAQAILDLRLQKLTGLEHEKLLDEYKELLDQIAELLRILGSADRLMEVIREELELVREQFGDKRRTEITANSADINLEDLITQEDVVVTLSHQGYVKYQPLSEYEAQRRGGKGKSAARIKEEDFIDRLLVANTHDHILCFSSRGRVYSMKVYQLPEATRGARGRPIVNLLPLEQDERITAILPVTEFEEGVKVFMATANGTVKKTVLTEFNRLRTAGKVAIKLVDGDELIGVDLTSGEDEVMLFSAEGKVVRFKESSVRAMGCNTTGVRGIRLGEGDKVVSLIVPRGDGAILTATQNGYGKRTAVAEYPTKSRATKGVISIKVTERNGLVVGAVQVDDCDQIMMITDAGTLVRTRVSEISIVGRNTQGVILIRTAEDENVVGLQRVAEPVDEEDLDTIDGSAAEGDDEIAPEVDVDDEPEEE

SMILES | inhibition at 12.5 µM [%] | S. aureus (SAU) GyrB ATPase % Inhibition (compound concentration 12.5 μM, 12.5 µM) [%]
CCNC(=O)Nc1ccc(-c2ccc3c(c2)c(=O)c(C(=O)O)cn3CCOC)cn1 [Example 46, 6-(6-(3-Ethylureido)pyridin-3-yl)-1-(2-methoxyethyl)-4-oxo-1,4-dihydroquinoline-3-carboxylic acid] | 83.4 | –
CCCCn1cc(C(=O)O)c(=O)c2cc(-c3ccc(NC(=O)NCC)nc3)ccc21 [Example 47, 1-Butyl-6-(6-(3-ethylureido)pyridin-3-yl)-4-oxo-1,4-dihydroquinoline-3-carboxylic acid] | 91.7 | –
CCNC(=O)Nc1ccc(-c2ccc3c(c2)c(=O)c(C(=O)O)cn3CCN2CCOCC2)cn1 [Example 48, 6-(6-(3-ethylureido)pyridin-3-yl)-1-(2-morpholinoethyl)-4-oxo-1,4-dihydroquinoline-3-carboxylic acid] | 101 | –
CCNC(=O)Nc1ccc(-c2ccc3c(c2)c(=O)c(C(=O)O)cn3CC(F)F)cn1 [Example 49, 1-(2,2-difluoroethyl)-6-(6-(3-ethylureido)pyridin-3-yl)-4-oxo-1,4-dihydroquinoline-3-carboxylic acid] | 37.8 | –
CCNC(=O)Nc1ccc(-c2c[nH]c(=O)c(C(=O)O)c2)cn1 [Example 51, 5-(6-(3-ELthylureido)pyridin-3-yl)-2-oxo-1,2-dihydropyridine-3-carboxylic acid] | 62.1 | –
CCNC(=O)Nc1ccc(-c2nc(C(=O)N(C)C)c(C(=O)NCC)s2)cn1 [Example 54, N^5-Ethyl-2-(6-{[(ethylamino)carbonyl]amino}pyridin-3-yl)-N^4,N^4-dimethyl-1,3-thiazole-4,5-dicarboxamide] | 89.8 | –
CCCNC(=O)c1sc(-c2ccc(NC(=O)NCC)nc2)nc1C(=O)N(C)C [Example 55, 2-[6-(3-Ethyl-ureido)-pyridin-3-yl]-thiazole-4,5-dicarboxylic acid 4-dimethylamide 5-propylamide] | 86.4 | –
CCNC(=O)Nc1ccc(-c2nc(C(=O)N(C)C)c(C(=O)NC(C)C)s2)cn1 [Example 56, 2-[6-(3-Ethyl-ureido)-pyridin-3-yl]-thiazole-4,5-dicarboxylic acid 4-dimethylamide 5-isopropylamide] | 84.1 | –
CCNC(=O)Nc1ccc(-c2nc(C(=O)N(C)C)c(C(=O)N(C)C)s2)cn1 [Example 57, 2-[6-(3-Ethyl-ureido)-pyridin-3-yl]-thiazole-4,5-dicarboxylic acid bis-dimethylamide] | 80.1 | –
CCNC(=O)Nc1ccc(-c2nc(C(=O)N(C)C)c(C(=O)NC3CCCC3)s2)cn1 [Example 58, 2-[6-(3-Ethyl-ureido)-pyridin-3-yl]-thiazole-4,5-dicarboxylic acid 5-yclopentylamide 4-dimethylamide] | 89.3 | –
CCNC(=O)Nc1ccc(-c2nc(C(=O)NCC)c(C(=O)N(C)C)s2)cn1 [Example 61, 2-[6-(3-Ethyl-ureido)-pyridin-3-yl]-thiazole-4,5-dicarboxylic acid 5-dimethylamide 4-ethylamide] | 92.8 | –
CCCNC(=O)c1nc(-c2ccc(NC(=O)NCC)nc2)sc1C(=O)N(C)C [Example 64, 2-[6-(3-ethyl-ureido)-pyridin-3-yl]-thiazole-4,5-dicarboxylic acid 5-dimethylamide 4-propylamide] | 92.6 | –
CCNC(=O)Nc1ccc(-c2nc(C(=O)NC(C)C)c(C(=O)N(C)C)s2)cn1 [Example 67] | 92.5 | –
CCNC(=O)Nc1cc(-c2cncc(F)c2)c(-c2cncc(C(=O)O)c2)cn1 [Example 69, 6′-{[(Ethylamino)carbonyl]amino}-5″-fluoro-3,3′:4′,3″-terpyridine-5-carboxylic acid] | 88.5 | –
CCNC(=O)Nc1cc(-c2cncc(F)c2)c(-c2cncc(C(=O)NC)c2)cn1 [Example 70, 6′-{[(ethylamino)carbonyl]amino}-5″-fluoro-N-methyl-3,3′:4′,3″-terpyridine-5-carboxamide] | 88.2 | –
CCNC(=O)Nc1ccc(-c2nc(-c3nccn3CCOC)c(C(=O)OC)s2)cn1 [Example 71, Methyl 2-(6-{[(ethylamino)carbonyl]amino}pyridin-3-yl)-4-[1-(2-methoxyethyl)-1H-imidazol-2-yl]-1,3-thiazole-5-carboxylate] | 93 | –
CCNC(=O)Nc1ccc(-c2nc(-c3ncnn3C)c(C(=O)OC)s2)cn1 [Example 72, Methyl 2-(6-{[(ethylamino)carbonyl]amino}pyridin-3-yl)-4-(1-methyl-1H-1,2,4-triazol-5-yl)-1,3-thiazole-5-carboxylate] | 80.3 | –
CCNC(=O)Nc1ccc(-c2nc(C(=O)N[C@@H](C)COC)c(C(=O)OCC)s2)cn1 [Example 74, Ethyl 2-(6-{[(ethylamino)carbonyl]amino}pyridin-3-yl)-4-({[(1S)-2-methoxy-1-methylethyl]amino}carbonyl)-1,3-thiazole-5-carboxylate] | 0.95 | –
CCNC(=O)Nc1ccc(-c2nc(-c3nccn3C)c(C(=O)OC)s2)cn1 [Example 75, Methyl 2-(6-{[(ethylamino)carbonyl]amino}pyridin-3-yl)-4-(1-methyl-1H-imidazol-2-yl)-1,3-thiazole-5-carboxylate] | 93.5 | –
CCNC(=O)Nc1ccc(-c2nc(C(=O)NC(C)(C)C)c(C(=O)OCC)s2)cn1 [Example 76, Ethyl 4-[(tert-butylamino)carbonyl]-2-(6-{[(ethylamino)carbonyl]amino}pyridin-3-yl)-1,3-thiazole-5-carboxylate] | 88.2 | –
CCNC(=O)Nc1cc(-c2ccccc2)c(-c2cncc(C(=O)OCC)c2)cn1 [Example 77, Ethyl 6′-{[(ethylamino)carbonyl]amino}-4′-phenyl-3,3′-bipyridine-5-carboxylate] | 101 | –
CCNC(=O)Nc1cc(-c2nc(C(F)(F)F)cs2)c(-c2cncc(C(=O)OCC)c2)cn1 [Example 83, Ethyl 6′-{[(ethylamino)carbonyl]amino}-4′-[4-(trifluoromethyl)-1,3-thiazol-2-yl]-3,3′-bipyridine-5-carboxylate] | 86.9 | –
CCNC(=O)Nc1cc(-c2cccnc2)c(-c2cncc(C(=O)OCC)c2)cn1 [Example 85, Ethyl 6′-{[(ethylamino)carbonyl]amino}-3,3′:4′,3″-terpyridine-5-carboxylate] | 94.9 | –
CCNC(=O)Nc1cc(-c2ccc(F)nc2)c(-c2cncc(C(=O)OCC)c2)cn1 [Example 86, Ethyl 6′-{[(ethylamino)carbonyl]amino}-6″-fluoro-3,3′:4′,3″-terpyridine-5-carboxylate] | 99.9 | –
CCNC(=O)Nc1ccc(-c2nc(-c3nccn3CCOC)c(C(=O)O)s2)cn1 [Example 89, 2-(6-{[(ethylamino)carbonyl]amino}pyridin-3-yl)-4-[1-(2-methoxyethyl)-1H-imidazol-2-yl]-1,3-thiazole-5-carboxylic acid] | 86.1 | –
CCNC(=O)Nc1ccc(-c2nc(-c3ncnn3C)c(C(=O)O)s2)cn1 [Example 90, 2-(6-{[(Ethylamino)carbonyl]amino}pyridin-3-yl)-4-(1-methyl-1H-1,2,4-triazol-5-yl)-1,3-thiazole-5-carboxylic acid] | – | 19.71
CCNC(=O)Nc1ccc(-c2nc(C(=O)NCCOC)c(C(=O)O)s2)cn1 [Example 91, 2-(6-{[(Ethylamino)carbonyl]amino}pyridin-3-yl)-4-{[(2-methoxyethyl)amino]carbonyl}-1,3-thiazole-5-carboxylic acid] | 101 | –
